Test results from US9085761B1, “Methods and compositions for amplification of nucleic acids” (Affymetrix, Inc., priority 2012, dated 2015).
Each block holds one molecule with its values, some of them ahead of it.

How the values were obtained:
[1] = target: T1, Taq DNA Polymerase (Thermus aquaticus, UniProt P19821); test: PCR amplification of a 455 bp human numb target with Taq DNA Polymerase in the presence of surfactant, product seen on agarose gel; type: biochemical; details: for PCR product of the expected size: FIG. 1, diluted Taq with 0.00011% Tween-20 and NP-40 carry-over; for Function: Table 1 summary: surfactants or blocked co-polymers that worked in the assay used and those that did not
T1 construct: made in house
T1 sequence (P19821 whole entry): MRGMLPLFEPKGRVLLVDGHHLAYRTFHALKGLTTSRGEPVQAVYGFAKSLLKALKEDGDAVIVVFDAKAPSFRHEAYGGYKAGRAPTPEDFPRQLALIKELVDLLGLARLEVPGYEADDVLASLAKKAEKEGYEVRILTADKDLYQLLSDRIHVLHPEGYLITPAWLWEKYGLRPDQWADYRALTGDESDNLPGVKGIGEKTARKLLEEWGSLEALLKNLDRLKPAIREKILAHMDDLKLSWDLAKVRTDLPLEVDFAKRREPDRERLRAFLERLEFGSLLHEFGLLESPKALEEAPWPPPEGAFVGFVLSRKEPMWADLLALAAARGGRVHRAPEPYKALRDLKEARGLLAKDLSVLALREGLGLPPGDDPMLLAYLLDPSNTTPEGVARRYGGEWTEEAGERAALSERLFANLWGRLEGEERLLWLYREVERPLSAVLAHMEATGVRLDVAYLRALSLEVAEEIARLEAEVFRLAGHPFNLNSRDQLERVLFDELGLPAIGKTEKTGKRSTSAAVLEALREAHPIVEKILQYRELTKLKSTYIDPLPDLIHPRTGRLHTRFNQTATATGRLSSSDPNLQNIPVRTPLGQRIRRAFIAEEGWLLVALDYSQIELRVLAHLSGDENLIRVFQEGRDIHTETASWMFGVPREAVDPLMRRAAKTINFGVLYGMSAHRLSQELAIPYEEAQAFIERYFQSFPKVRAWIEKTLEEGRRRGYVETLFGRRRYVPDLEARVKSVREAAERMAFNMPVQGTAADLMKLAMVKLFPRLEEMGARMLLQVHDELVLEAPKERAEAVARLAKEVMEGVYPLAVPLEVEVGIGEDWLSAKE
Description: In order to test the efficacy of detergents on Taq DNA Polymerase, a stock of Taq DNA Polymerase at a base concentration of 111 units/ul was diluted to 5 units/ul in a storage buffer that lacked detergents. The standard Taq DNA Polymerase storage buffer has 0.5% Tween-20 and 0.5% NP-40. In this example 0.625 units of Taq were added per 25 ul reaction, so that represents a change in final detergent concentration of 0.0025% each detergent to 0.00011% of each. A 455 bp single-copy target from the human numb gene was PCR-amplified from 1 ng human genomic DNA in a 25 ul reaction with 0.625 units of the diluted Taq DNA polymerase. The cycling conditions were 95° C. for 2 minutes; 35 cycles of 95° C. for 10 seconds, 55° C. for 20 seconds, and 72° C. for 30 seconds; 72° C. for 5 minutes; and 10° C. until required. An aliquot of 10 ul was run on a 1.5% agarose/ethidium bromide gel.
In FIG. 1, the results of the initial screen of several non-ionic and zwitterionic detergents are shown. In this example there is residual Tween-20 and NP-40 in the enzyme storage buffer. The concentrations of surfactants listed are the final concentration of that surfactant in the assay. All conditions in the example, including the “no detergent” condition, have 0.00011% Tween-20 and 0.00011% NP-40 resulting from carry-over from the enzyme storage buffer. […] As expected Tween-20 and NP-40 worked when present at 0.01% and 0.1%. […] A0-12-2 worked at 0.01% and PEO(10)SAP worked at 0.01, 0.1 and 1%. It is clear that in addition to the standard non-ionic detergents with PEOn, a zwitterionic or ylide with that polymer will also contribute to PCR product generation.
Because a small amount of Tween-20 and NP-40 was carried over in the previous experiment, Taq DNA Polymerase was purified without the addition of detergents after the lysis step to provide a “detergent-free” Taq for use in the next example. The previous numb target and reaction conditions were used with 0.625 units of Taq per reaction.
To further test the effectiveness of PEOn-derivatives, the denaturation temperature was changed from 95° C. to 98° C. in the cycling protocol. This increase in temperature adds additional stress to the function of Taq DNA Polymerase. A selection of PLURONIC® and TETRONIC® surfactants were tested (labels in the figures are abbreviated, for example, “T908” refers to TETRONIC® 908 and “P F87” refers to PLURONIC® F87). In addition, TETRONIC® 904 and 1107 were modified to amine-oxide, forms and then tested.

[2] = test system: thermostable DNA polymerase; test: Evaluation of protecting groups for reversible modification (hot-start inactivation) of thermostable polymerase; type: biochemical; details: reactivity tested in Tris pH 8 or Tricine pH 8.8
Description: Three classes of protecting groups were evaluated: 2,3-substituted maleic anhybrides, alpha-activated compounds that can undergo beta-elimination and molecules that can undergo intramolecular cyclic displacement or assisted elimination. The experimental compounds had the general structure:
Where Y could be N-hydroxysuccinimide (NHS), p-nitrophenol (pNP), or imidazole and X could be CONMe2, MeSO2, CN, NO2, CO2Me, (CH2)2SMe, N(CH3)CHO, or CH2C(O)CH3. The reactivity was tested in Tris pH 8 or Tricine pH 8.8. Buffer pH measurements are at room temperature (˜25° C.). […]

[3] = Cloud point of surfactant; type: physicochemical; details: about 1% detergent concentration in 6×SSPE buffer
Description: In some aspects surfactants are selected for use in the methods because they have a cloud point (temperature at which the solid begins to precipitate and give the fluid a cloudy appearance) greater than or equal to 80° C., greater than or equal to 90° C. and in particularly preferred aspects the cloud point is greater than about 100° C. (in each case when measured at about 1% aqueous). The cloud point is the temperature above which a surfactant solution separates into a detergent rich phase and a detergent poor phase (see, Rosen et al. Surfactants and interfacial Phenomena, ^3rd ed. 2004, Hoboken; John Wiley & Sons, Inc. and Neugebauer, J. M. Detergents: an overview, Methods Enzymol, 1990, 182, p. 239-53). The separation is visualized as turbidity within the solution. An increase in temperature favors micelle formation; the rapid growth of micelles along with intermicellar attraction likely results in the formation of large particles that can precipitate out of solution, thus causing turbidity. This phase separation is reversible upon cooling. […]
The amine oxide detergents of the present invention have higher cloud points than their non-amine oxide counterparts. For example, PEO(10)stearlyamine has a cloud point of 60° C. compared to PEO(10)stearylamine N-oxide's cloud point of greater than 100° C., in both cases when measured at about 1% detergent concentration in 6×SSPE buffer. […]

Molecule: CCCCCCCCCCCC[N+]([O-])(CCO)CCO [AO-12-2, N,N-Bis(2-hydroxyethyl)laurylamine N-Oxide]
- PCR product of the expected size ([1]; 0.01% surfactant final): resulted in a product
- PCR product of the expected size ([1]; 0.01% surfactant final, listed as A0-12-2): worked
- PCR product of the expected size ([1]; 0.1% surfactant final): not
- PCR product of the expected size ([1]; 1% surfactant final): not

- effectiveness as reversible modifier of polymerase [2]: most effective
Molecule: CS(=O)(=O)CCOC(=O)Oc1ccc([N+](=O)[O-])cc1 [MSEC, 2-(Methylsulfonyl)ethyl 4-nitrophenyl carbonate]

Molecule: NP 40 [reference compound]
- PCR product of the expected size ([1]; 0.01% surfactant final): worked
- PCR product of the expected size ([1]; 0.1% surfactant final): worked
- Function [1]: YES

Molecule: PEO(10) Stearyl (3-sulfo-propyl)-ammonium [PEO(10) SAPS]
- Function [1]: YES

Molecule: Polyethoxylated (10) Stearylamine N-Oxide [PE0 (10) SAO]
- PCR product of the expected size ([1]; 0.01% surfactant final): worked
- PCR product of the expected size ([1]; 0.1% surfactant final): worked
- PCR product of the expected size ([1]; 1% surfactant final): worked
- Function [1]: YES
- PCR product ([1]; detergent-free Taq DNA Polymerase, FIG. 2, 3, 4): PCR product was observed
- cloud point [3]: greater than 100 °C

Molecule: Polyethoxylated/Polypropoxylated (isodecyloxypropyl)amine N-Oxide [AO-405]
- PCR product of the expected size ([1]; concentration not given): no visible product
